Reference: patent US11266664B2, “Use of homosalate and octyl salicylate to treat multiple sclerosis” (Wisconsin Alumni Research Foundation, priority 2016, dated 2022)
Entries after “also recorded” stand apart in the source; their conditions may differ.

Legend:
[1] = Adverse effects of topical application; format: in vivo, mice
rabbits = conditions: unpublished; cited from earlier work
EAE mice = test: MOG35-55-induced EAE in mice, daily clinical score (0-5); format: in vivo; conditions: for Mean Severity / CDI / Day of onset: as E1, mean ± SD; for Mean Severity: clinical score 0-5 averaged over the entire experiment; for CDI: clinical scores summed per animal, divided by mice per group; for Effective topical dose in a mouse model: daily; for Dose dependence of EAE suppression: topical 10, 20 and 30 μl or 0.5, 1.0, 1.5 g/kg (FIG. 8A); for Suppression of EAE (mean clinical score) by sunscreen ingredients: topical daily day 0-30, amount equal to that in the sunscreen: homosalate 1.5 g/kg, octisalate 0.5 g/kg, 12% avobenzone, 16% oxybenzone in 25 μl DMSO; for Incidence: topical daily day 0-30, homosalate 30 μl (1.5 g/kg), octisalate 10 μl (0.5 g/kg), sunscreen spray 200 μl, N=11-12, * P<0.05 vs Control; for Suppression of EAE at 1.5 g/kg: topical, ca 1.5 g/kg
Protocol: Animals and Diet. Female C57BL/6 mice (8-9 weeks old) purchased from Jackson Laboratory were fed a standard lab diet chow 5008 (Purina Mills, Richmond, Ind.) and maintained in the Department of Biochemistry's vivarium. The mice were exposed to 12 h light-dark cycles. All procedures were approved by the Research Animal Resources Committee of the College of Agricultural & Life Sciences, University of Wisconsin-Madison. The mice were randomly divided into groups for different treatment (12 mice/group).
Mice were shaved on their back to receive sunscreen or NBUVB radiation. The following Sunscreen cream or spray was used in our study (See Appendix A): 1. Coppertone spray (SPF 50, MSD Consumer Care, Inc., Memphis, Tenn.); 2. Coppertone water babies (SPF 50, MSD Consumer Care, Inc., Memphis, Tenn.); 3. Hawaiian Tropic (SPF 50, Energizer Personal Care, LLC, Shelton, Conn.); 4. Kiss my face (SPF 50, Kiss My Face, LLC, Gardiner, N.Y.); 5. Blue Lizard Australian Sunscreen (SPF 30, Crown Laboratories, Johnson, Tenn.); 6. Banana Boat Kids (SPF 50, Energizer Personal Care, LLC, Shelton, Conn.); 7. CoTZ Face (SPF40, CoTZ Skincare, West Norriton, Pa.). The sunscreen was applied manually to cover the shaved skin daily depending on the experimental schedule. Four main active ingredients (avobenzone; oxibenzone; homosalate; octyl salicylate) were purchased from Spectrum Chemical MFG. Corp. (New Brunswick, N.J.). The total dose of each ingredient administrated topically on each mouse skin was equal to the amount of the ingredient in the sunscreen.
In this experiment, mice were immunized with myelin oligodendrocyte glycoprotein peptide (MOG)35-55. MOG35-55 kit (EK-2110) was purchased from Hooke lab (Lawrence, Mass.). Each mouse was immunized with subcutaneous injection of 20 μl MOG35-55/CFA emulsion and intraperitoneally injection with 200 ng of pertussis toxin (List Biological Laboratories) diluted in sterile PBS. The second booster pertussis toxin injection was given 48 hours later. Each mouse was scored daily for clinical signs of EAE using the following scale: 0, no clinical disease; 1, loss of tail tone; 2, unsteady gait; 3, hind limb paralysis; 4, forelimb paralysis; 5, death.
Onset was calculated by averaging the first day when clinical signs appeared and continued for at least 2 days. Mean severity was determined by averaging the clinical scores during the entire experiment. The CDI (clinical disease index) was calculated by summing the clinical scores in each animal and divided by the number of mice per group. Statistical analyses were performed using the two-tailed Fisher exact probability test for incidence, the Mann-Whitney nonparametric u test for clinical scores, and the unpaired Student t test for all other measurements. A value of P<0.05 was considered statistically significant.
Female C57BL/6 mice (8-10 weeks old) purchased from Jackson Laboratory (Bar Harbor, Me.) were fed a standard lab chow 5008 (Purina Mills, Richmond, Ind.). The mice were exposed to 12 h light-dark cycles. In one experiment the animals were kept in darkness at all times. All procedures were approved by the Institutional Animal Care and Use Committee of the College of Agricultural & Life Sciences, University of Wisconsin-Madison.
Mice were immunized with MOG35-55 kit (EK-2110, purchased from Hooke lab (Lawrence, Mass.)). Each mouse was immunized with a subcutaneous injection of 20 μl MOG35-55/CFA emulsion and an intraperitoneal injection with 200 ng of pertussis toxin (List Biological Laboratories) diluted in sterile PBS (14). A second booster pertussis toxin injection was given 48 hours later. Each mouse was scored daily for clinical signs of EAE using the following scale: 0, no clinical disease; 1, loss of tail tone; 2, unsteady gait; 3, hindlimb paralysis; 4, forelimb paralysis; 5, death (15).
Sunscreen creams or spray applied topically to the shaved back skin of the mice daily are shown below (Table 2): 1. […]

ear edema = ear edema test in mice, reference 7; cited from earlier work
[2] = Body weight of EAE mice, weighed weekly; format: in vivo; conditions: for Body weight at three doses: topical 0.5, 1.0, 1.5 g/kg, all treatments except homosalate 0.5 g/kg (FIG. 8B); for Body weight of EAE mice given sunscreen ingredients: topical daily day 0-30, amount equal to that in the sunscreen
Protocol: Referring to FIGS. 2A and 2B, we analyzed different sunscreen ingredients. […] Mice were treated with ingredients (avobenzone, oxybenzone or combination) of sunscreen by topical administration daily during EAE (day 0-day 30). Sunscreen spray 200 μl was also used as a positive control. Each mouse was scored daily and weighed weekly during the experiment (30 days). Data are expressed as mean value, N=10-12/group.
Mice were treated with ingredients (homosalate, octyl salicylate or combination) of sunscreen by topical administration daily during EAE (day 0-day 30). Sunscreen spray 200 μl daily was used as a positive control. Mice were scored daily and weighed weekly. Data were expressed as mean value, N=10-12/group.

MS = conditions: studied in 1961, reference 9; cited from earlier work

Compound | Adverse effect [1] | Mean Severity (EAE mice) | CDI (EAE mice) | Day of onset (EAE mice) | Effective topical dose in a mouse model (EAE mice) [mg/kg] | Suppression of EAE (mean clinical score) by sunscreen ingredients (EAE mice) | Incidence (EAE mice) | Suppression of EAE at 1.5 g/kg (EAE mice) | Body weight of EAE mice given sunscreen ingredients [2] | also measured
CC1CC(OC(=O)c2ccccc2O)CC(C)(C)C1 (centres unmarked) [Homosalate, 3,3,5-trimethylcyclohexyl 2-hydrobenzoate] | temporary mild skin irritation | 1.3 ± 0.0 | 1 ± 0 | 22 ± 0 | 1500 | significantly suppress EAE | 8% (1/12) * | equally active; also recorded: completely blocked EAE | without affecting body weight | Acute dermal toxicity LD50 (rabbits): > 5000 mg/kg; Effectiveness when applied less frequently than each day (EAE mice; homosalate 1.5 g/kg topically (FIGS. 8C and 8D)): effectiveness diminished; Mean EAE score, applied every day and every 2-day (EAE mice; homosalate 30 μl or 1.5 g/kg topically (FIGS. 8C and 8D), p<0.05): significantly lower than control; Dose dependence of EAE suppression (EAE mice): dose-dependent suppression of EAE; also recorded: dose dependent suppression of EAE; Suppression of EAE (mean clinical score) by sunscreen ingredients (EAE mice; listed as homosalate): dramatically suppress EAE development; also recorded: provide the protection; also recorded: dramatically suppressed EAE severity; also recorded: complete suppression of EAE; also recorded: almost completely prevented EAE development; Anti-inflammatory effect (ear edema): demonstrated; Body weight at three doses [2]: increased the body weight; also recorded: significantly different from control
COc1ccc(C(=O)CC(=O)c2ccc(C(C)(C)C)cc2)cc1 [avobenzone, reference compound] | – | – | – | – | – | partially suppress EAE severity; also recorded: little to no significant suppression of EAE; also recorded: fail to suppress EAE; also recorded: slightly suppressed disease progression | – | – | no significant change in body weight | Suppression of EAE (mean clinical score) by sunscreen ingredients (EAE mice; listed as Avobenzone): partially suppress EAE severity
CCCCC(CC)COC(=O)c1ccccc1O (centres unmarked) [octyl salicylate, 2-ethylhexyl salicylate] | temporary mild skin irritation | 2.0 ± 0.8 | 20 ± 1 | 18 ± 3 | 500 | dramatically suppress EAE development; also recorded: provide the protection; also recorded: almost completely prevented EAE development | 75% (9/12) | equally active | without affecting body weight | Dose dependence of EAE suppression (EAE mice; listed as octisalate): dose-dependent suppression of EAE; also recorded: dose dependent suppression of EAE; Suppression of EAE (mean clinical score) by sunscreen ingredients (EAE mice; listed as Octisalate): moderate suppression but did not reach statistical significance; Suppression of EAE (mean clinical score) by sunscreen ingredients (EAE mice; listed as octisalate): complete suppression of EAE; also recorded: significantly suppress EAE; Body weight at three doses ([2]; listed as octisalate): increased the body weight; also recorded: significantly different from control
COc1ccc(C(=O)c2ccccc2)c(O)c1 [oxybenzone, reference compound] | – | – | – | – | – | partially suppress EAE severity; also recorded: little to no significant suppression of EAE; also recorded: fail to suppress EAE; also recorded: slightly suppressed disease progression | – | – | no significant change in body weight | –
CC(=O)Oc1ccccc1C(=O)O [aspirin, acetylsalicylic acid] | – | – | – | – | – | – | – | – | – | Relationship between aspirin and MS, control vs treated group (MS): without a significant difference between the control and treated group
